Reference: publication PMC7583830 (Molecules, 2020)
Where “and” joins values, the source holds several entries; their conditions need not be identical. Identical values can stand only once. Like-named read-outs stand apart in the source and are kept apart here. Where a SMILES comes first, the peptide text is derived from it. [ ]: non-standard residue; d: D form. The star is where a group is joined. DOTA = O=C(O)CN1CCN(CC(=O)O)CCN(CC(=O)*)CCN(CC(=O)O)CC1; 1Nal = N[C@@H](Cc1cccc2ccccc12)C(=O)O; NMeNle = CCCC[C@H](NC)C(=O)O

What was measured:
[1] = Stability in fresh human serum (radio-HPLC); type: in vitro ADME; settings: 24 h incubation, 37 °C
Protocol: (§1) In vitro stability studies for the characterization of the metabolic stability of the radiolabeled peptide analogs in human serum were carried out with [^177Lu]Lu-1, [^177Lu]Lu-M1, [^177Lu]Lu-M2, [^177Lu]Lu-M3 and [^177Lu]Lu-M4 (n = 2). Additional stability studies in rat liver and kidney homogenates were performed for [^177Lu]Lu-1 (n = 2). Tissue homogenates were prepared from dissected organs by homogenization for 1 min at RT (IKA-Werke, Staufen, Germany) in 20 mM HEPES buffer pH 7.3 (30% v/v). The radioligands were incubated in the different media at a concentration of 500 pmol/mL (corresponding to an activity of 6–11 MBq). After incubation at 37 °C at different time points for up to 24 h, a 100 µl sample was taken in duplicates and analyzed by HPLC. Samples obtained from human serum and rat homogenates were treated with ACN at a ratio of 1:1.5 (v/v) to precipitate proteins, centrifuged (14,000 rpm, 2 min, centrifuge 5424, Eppendorf AG, Germany) and diluted with water at a ratio of 1:1 (v/v). A 100 µl aliquot of this solution was injected into the radio HPLC system. The degradation of the radioligand was evaluated based on the radiochemical purity after radiolabeling and the percentage of intact radiopeptide observed during incubation in the different media.

[2] = Stability in rat kidney homogenate; type: in vitro ADME
Protocol: as §1

[3] = Distribution coefficient (logD) in octanol/PBS; type: physicochemical; settings: octanol/PBS pH 7.4; read-out: logD
Protocol: The mixture was vigorously vortexed at room temperature over a period of 15 min using a small shaker (MS3 Basic, IKA, Staufen, Germany) with speed of 1500 rpm.

[4] = Protein binding in human serum by size exclusion chromatography; type: in vitro ADME; settings: 24 h incubation
Protocol: For protein binding assessment, the radiolabeled DOTA-peptides were incubated in fresh human serum at 37 °C (500 pmol/mL, n = 2). After 1, 4 and 24 h of incubation, two samples were taken for each time point and analyzed by Sephadex G-50 size-exclusion chromatography (GE Healthcare Illustra, Little Chalfont, UK). The percentage of protein binding was determined by measuring the column and the eluate with the gamma-counter.

[5] = Metabolic stability in vivo and radiometabolites (radio-HPLC of blood, urine, liver, kidney); design: species or system BALB/c mice
Protocol: (§2) Metabolic biodistribution studies were performed in accordance with the ethical standards of the institution and approved by the Austrian Ministry of Science (BMWFW-66.011/0072-V/3b/2019). These studies were carried out in 5- to 7-week-old female BALB/c mice (n = 3) injected with [^177Lu]Lu-1 via a lateral tail vein. To allow monitoring of the metabolites by radio-HPLC, mice were injected with 30 MBq corresponding to 0.8 nmol total peptide. The mice were euthanized by cervical dislocation after different time points of 10 min, 30 min and 1 h p.i. and the urine and a venous blood sample were collected at the time of sacrifice. Liver and kidneys were dissected and homogenized in 20 mM HEPES buffer pH 7.3 at a ratio of 1:1 (v/v) with an Ultra-Turrax T8 homogenizer (IKA-Werke, Staufen, Germany) for 1 min at RT. Before radio-HPLC analysis, the samples (except urine) were treated with ACN at a ratio of 1:1 (v/v) to precipitate proteins, centrifuged at 2000× g for 2 min and diluted with water at a ratio of 1:1 (v/v). For HPLC analysis of the samples, the analytical HPLC system described above with a flow rate of 1 mL/min was used together with the following optimized water/ACN/0.1% TFA gradient to allow a better separation of [^177Lu]Lu-1 and the different radiometabolites: 0–7 min 1–7% ACN, 7–8 min 7–10% ACN, 8–18 min 10–18% ACN, 18–20 min 18–32% ACN, 20–27 min 32% ACN, 27–37 min […], 37–40 min 80% ACN, 40–40.1 min 80–1% ACN, 40.1–45 min 1% ACN. Urine was measured with the low-sensitivity loop of the radiodetector. The remaining samples were analyzed with the high-sensitivity loop due to the lower radioactivity present in blood, liver and kidney homogenate. To quantify the percentage of intact [^177Lu]Lu-1 and [^177Lu]Lu-M1 showing some overlap in the radiochromatogram when using the high-sensitivity loop of the radiodetector, the two radiopeptides were co-injected at different known ratios to enable a more accurate separation and integration of the two peaks (see supporting Figure S4). Mice from the metabolic biodistribution studies were subjected to a further dissection of all remaining tissues (blood, lung, heart, femur, spleen, muscle, intestine, pancreas and stomach). All organs, also including liver and kidneys, were weighed, and their radioactivity was measured in the gamma counter together with a standard and the residual body. To quantify the uptake of radioactivity in liver and kidneys, a part of liver and kidney homogenate was measured in the gamma counter to extrapolate the radioactivity for the whole organ.

[6] = Biodistribution in BALB/c mice; type: in vivo; settings: for tissue uptake at 0.5 h / tissue uptake at 1 h / tissue uptake at 10 min: female, BALB/c, mouse, iv, total radioactivity; for tissue uptake at 0.5 h: 30 min p.i.; for tissue uptake at 1 h: 1 h p.i.
Protocol: as §2

[7] = blood, 30 MBq, read-out: uptake in blood
[8] = femur, 30 MBq, read-out: uptake in femur
[9] = heart, 30 MBq, read-out: uptake in heart
[10] = intestine, 30 MBq, read-out: uptake in intestine
[11] = kidneys, 30 MBq, read-out: uptake in kidneys
[12] = liver, 30 MBq, read-out: uptake in liver
[13] = lung, 30 MBq, read-out: uptake in lung
[14] = muscle, 30 MBq, read-out: uptake in muscle
[15] = pancreas, 30 MBq, read-out: uptake in pancreas
[16] = spleen, 30 MBq, read-out: uptake in spleen
[17] = stomach, 30 MBq, read-out: uptake in stomach

intact radiopeptide [1]: 96.2 ± 1.3%
intact radiopeptide ([2]; 20 min): 65.6 ± 2.8%
intact radiopeptide ([2]; 30 min): 43.9 ± 1.0% and 44%
intact radiopeptide ([2]; 2 h): < 5%
intact radiopeptide ([2]; 24 h): < 1%
logD [3]: -1.96 ± 0.07
fraction unbound [4]: 0.622
total amount of radiometabolites ([5]; blood, 10 min p.i.): 19.5%
total amount of radiometabolites ([5]; blood, 30 min p.i.): 35.9%
percentage of intact radiopeptide / radiometabolite ([5]; blood, 30 min p.i., mice injected i.v. with [177Lu]Lu-1): 64.1%
total amount of radiometabolites ([5]; blood, 60 min p.i.): 43.1%
percentage of intact radiopeptide / radiometabolite ([5]; blood, 60 min p.i., mice injected i.v. with [177Lu]Lu-1): 56.9%
percentage of intact radiopeptide / radiometabolite ([5]; kidney homogenate soluble phase, 10 min p.i.): 29.7%
percentage of intact radiopeptide / radiometabolite ([5]; kidney, 30 min p.i.): 18.0%
percentage of intact radiopeptide / radiometabolite ([5]; kidney, 60 min p.i.): 7.0%
intact radiopeptide ([5]; kidneys and urine, studied time points): < 30%
percentage of intact radiopeptide / radiometabolite ([5]; liver homogenate soluble phase, 10 min p.i.): 71.9%
percentage of intact radiopeptide / radiometabolite ([5]; liver, 30 min p.i.): 53.9%
percentage of intact radiopeptide / radiometabolite ([5]; liver, 60 min p.i.): 47.7%
percentage of intact radiopeptide / radiometabolite ([5]; urine, 10 min p.i.): 29.1% and 29%
percentage of intact radiopeptide / radiometabolite ([5]; urine, 30 min p.i.): 19.4%
percentage of intact radiopeptide / radiometabolite ([5]; urine, 60 min p.i.): 18%
whole body activity ([6]; 10 min p.i.): 61.78 % IA
whole body activity ([6]; 1 h after injection): 12.27 % IA
tissue uptake at 0.5 h [6, 7]: 5.08 %ID/g
tissue uptake at 1 h [6, 7]: 2.05 %ID/g
tissue uptake at 10 min ([6]; blood, 10 min p.i., 30–40 MBq, 0.8 nmol, read-out: uptake in blood): 17.8 %ID/g
tissue uptake at 10 min ([6]; femur, 30 MBq, 10 min p.i., read-out: uptake in femur): 5.97 %ID/g
tissue uptake at 0.5 h [6, 8]: 1.28 %ID/g
tissue uptake at 1 h [6, 8]: 0.52 %ID/g
tissue uptake at 10 min ([6]; heart, 30 MBq, 10 min p.i., read-out: uptake in heart): 7.13 %ID/g
tissue uptake at 0.5 h [6, 9]: 2.72 %ID/g
tissue uptake at 1 h [6, 9]: 0.99 %ID/g
tissue uptake at 10 min ([6]; intestine, 30 MBq, 10 min p.i., read-out: uptake in intestine): 2.63 %ID/g
tissue uptake at 0.5 h [6, 10]: 1.61 %ID/g
tissue uptake at 1 h [6, 10]: 1.02 %ID/g
tissue uptake at 10 min ([6]; kidneys, 30 MBq, 10 min p.i., read-out: uptake in kidneys): 14.5 %ID/g
tissue uptake at 0.5 h [6, 11]: 10.8 %ID/g
tissue uptake at 1 h [6, 11]: 7.01 %ID/g
tissue uptake at 10 min ([6]; liver, 30 MBq, 10 min p.i., read-out: uptake in liver): 5.37 %ID/g
tissue uptake at 0.5 h [6, 12]: 2.95 %ID/g
tissue uptake at 1 h [6, 12]: 1.26 %ID/g
tissue uptake at 10 min ([6]; lung, 30 MBq, 10 min p.i., read-out: uptake in lung): 17.4 %ID/g
tissue uptake at 0.5 h [6, 13]: 5.03 %ID/g
tissue uptake at 1 h [6, 13]: 1.95 %ID/g
tissue uptake at 10 min ([6]; muscle, 30 MBq, 10 min p.i., read-out: uptake in muscle): 2.56 %ID/g
tissue uptake at 0.5 h [6, 14]: 1.03 %ID/g
tissue uptake at 1 h [6, 14]: 0.36 %ID/g
tissue uptake at 10 min ([6]; pancreas, 30 MBq, 10 min p.i., read-out: uptake in pancreas): 3.39 %ID/g
tissue uptake at 0.5 h [6, 15]: 1.76 %ID/g
tissue uptake at 1 h [6, 15]: 0.84 %ID/g
tissue uptake at 10 min ([6]; spleen, 30 MBq, 10 min p.i., read-out: uptake in spleen): 3.7 %ID/g
tissue uptake at 0.5 h [6, 16]: 2 %ID/g
tissue uptake at 1 h [6, 16]: 0.79 %ID/g
tissue uptake at 10 min ([6]; stomach, 30 MBq, 10 min p.i., read-out: uptake in stomach): 3.36 %ID/g
tissue uptake at 0.5 h [6, 17]: 2.29 %ID/g
tissue uptake at 1 h [6, 17]: 1.39 %ID/g
washout at 1 h versus 10 min p.i. ([6]; non-excretory organs (blood, lung, heart, femur, spleen and muscle)): 79–91%
percentage decrease of radioactivity at 1 h versus 10 min p.i. ([6]; pancreas): 75%
percentage decrease of radioactivity at 1 h versus 10 min p.i. ([6]; stomach): 59%
Compound: CCCC[C@@H](C(=O)N[C@@H](CC(=O)O)C(=O)N[C@@H](Cc1cccc2ccccc12)C(N)=O)N(C)C(=O)[C@H](Cc1c[nH]c2ccccc12)NC(=O)CNC(=O)[C@H](Cc1ccc(O)cc1)NC(=O)[C@@H]1CCCN1C(=O)[C@@H](CCC(=O)O)NC(=O)CN1CCN(CC(=O)O)CCN(CC(=O)O)CCN(CC(=O)O)CC1 [[^177Lu]Lu-1, metal not drawn] ({DOTA}-[dE]PYGW[NMeNle]D[1Nal]-NH2)
